This note sets out measurements from patent US8008491B2, “Substituted AZA-indoles as inhibitors of poly(ADP-ribose) polymerase (PARP)” (Aventis Pharmaceuticals, Inc., priority 2003, dated 2011).

SMILES strings stand for the structures. pEC50, pIC50: −log10 of the molar value.

Data set [1] has as its target T1, human PARP (PARP1) (Homo sapiens, UniProt P09874). In words: Radioactivity enzyme assay: incorporation of labeled NAD into acid-precipitated protein. The settings on record: reference compounds, NAD 200 μm. Format: biochemical.
Text: Full length human PARP (PARP1) is assembled from PCR fragments of a clone from a human brain cDNA library and two Incyte clones. The PARP gene (3046 bp) is sub-cloned into pFastBac-HTb vector to give PARP-pFastBac-HTh and the sequence of this clone is verified. PARP-pFastBac-HTb is expressed to obtain protein using the Bac-to-Bac expression protocol from Gibco-BRL. The recombinant virus generated is used to scale up the material for purification.
Cell pellets from cell broth of cells expressing PARP are treated with a cocktail of protease inhibitors and lysed by 4 freeze-thaw cycles. The material is suspended in 10 mM HEPES/0.1M NaCl/pH 7.2, stirred, and then centrifuged. A 40%-70% ammonium sulfate cut of protein pellet is obtained from the supernatant. The pellet is solubilized in 10 mM HEPES/pH 7.2 and centrifuged. The supernatant buffer is exchanged to 10 mM HEPES/pH 7.2/0.1M NaCl/25% glycerol by dialysis or with a desalting column. The enzyme preparation is stored at −20° C. until use.
Incorporation of radioactivity from labeled NAD into acid-precipitated protein is measured. […] After washing with TCA and ethanol, the filter is dried and counted for tritium CPM after addition of scintillation fluid.
Data set [2] concerns HL-60 (human leukemia) cells. In words: Cell-based assay: protection from cell death induced by serum deprivation (Alamar Blue). As to conditions: median effective concentration preventing cell death, HL-60, 0.1% FCS, 24 hr. On the procedure:
HL-60 (human leukemia) cells are grown and maintained using standard procedures in RPMI 1640+Glutamax medium supplemented with 10% fetal calf serum (FCS). For assay, cells are suspended in medium supplemented with 0.1% FCS at 0.5 million cells/mL and seeded into 96 well plates (100 μL/well). After preincubation for 3 hrs, cells are treated with compound for 1 hr, then Alamar Blue (Serotec) is added to the cells. After a further 24 hr incubation, fluorescence is measured (ex 560 nm, em 590 nm). Decrease in fluorescence compared to control cells (10 μM of a potent PARP inhibitor) is a measure of cell death. Increased fluorescence in the presence of test compound indicates protection from cell death induced by serum deprivation. For detection of polyADP-ribosylation, cells are subjected to serum deprivation in the presence and absence of compound. Cells are lysed and proteins are run on an SDS-PAGE gel. PolyADP-ribosylated proteins are detected with antibody to polyADP-ribose (Alexis or Calbiochem).
The results obtained from this study are expressed as EC50 (median effective concentration of the test compound that was effective in preventing the cell death—expressed in micromolar (μM) concentration) for each of the tested compounds and are summarized in Table 4.
In general terms: Alamar Blue is a resazurin reagent that responds to reducing activity.

The test system of data set [3] is Male Fisher 344 rats. In words: Stroke model: middle cerebral artery (MCA) occlusion, infarct volume. As to conditions: total dose 40 mg/kg i.v. (10 mg/kg bolus plus 5 mg/kg/hr for 6 hrs) 15 min after MCA occlusion; 48 hours post-occlusion. The format is in vivo, rat. On the procedure: Male Fisher 344 rats are anesthetized. The right carotid artery is isolated and ligated, and the right jugular vein is canulated for compound administration. The middle cerebral artery (MCA) was exposed through a craniotomy, and the MCA and its right branch, the lenticulostriate artery are electrocoagulated. The arteries are cut to avoid recanalization. […] The compounds are given as a 10 mg/kg bolus followed by an infusion of 5 mg/kg/hr for 6 hrs (total dose 40 mg/kg).
48 Hours post-MCA occlusion the rats are sacrificed, and the brains removed and cut into 2-mm coronal sections.
A total dose of 40 mg/kg of 2-(piperazin-1-yl)-1-phenyl-1H-indole-3-carboxaldehyde (Example 3) is given as bolus plus infusion as described above.

The subject of data set [4] is Male Sprague-Dawley rats. In words: Myocardial ischemia model: coronary artery occlusion and reperfusion, infarct size. Format: in vivo, rat. As to conditions: 20 min occlusion, 60 min reperfusion. An excerpt:
Male Sprague-Dawley rats are anesthetized and the chest is opened. A thin silk thread is placed around the left anterior descending coronary artery. The silk is passed through a plastic tube and the chest is closed. After stable hemodynamics, the coronary artery is occluded by applying tension to the thread via the tube. Successful occlusion is confirmed by a decrease in systolic blood pressure and alterations in ECG. Reperfusion is initiated by releasing the tension on the ligature.
For testing efficacy of Example 3 in this animal model, animals are divided into three groups. One group received the compound of Example 3 at 10 mg/kg i.v. 10 min prior to occlusion. A second group received compound of Example 3 at the same dose 5 min prior to reperfusion. The third group served as vehicle control. The period of occlusion is 20 min, followed by reperfusion for 60 min. After sacrifice infarct size is measured by staining of heart tissue slices with triphenyltetrazolium chloride and expressed as a percent (%) of area at risk.
A similar study is carried out with cariporide, a reference standard.

The target of data set [5] is T1, human PARP (PARP1). In words: PARP enzyme assay of Table 3 (radioactive enzyme assay or 'ELISA' enzyme assay).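 Further: Baculovirus-expressed PARP1 from insect cells, activity read as tritium from labeled NAD in acid-precipitated protein, or as biotin-NAD built into plate-bound histone by absorbance at 450 nm.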 The settings on record: IC50 (μM), fifty percent inhibitory concentration; recombinant human PARP. (In general: An ELISA detects its analyte on a solid surface through an enzyme-linked reagent.)
Experimental: The compounds of this invention are then tested with this enzyme preparation using either the radioactive enzyme assay or by the “ELISA” enzyme assay as set forth below.
Incorporation of radioactivity from labeled NAD into acid-precipitated protein is measured. The reaction mixture (volume 100 μL or 50 μL, in a test-tube or 96-well plate) contained 100 μg/mL calf thymus DNA (sonicated), 100 μg/mL histones, 100 mM Tris (pH 8.0), 1.0 mM DTT, 10 mM MgCl2, NAD (200 μm, 0.65 microcurie/mL), and varying amounts of enzyme. The reaction was incubated for 10 min at 37° C. or at room temperature for 60 min. The reaction was stopped and protein precipitated by addition of ice-cold trichloroacetic acid (TCA; 10% or 20% aqueous w/v). After brief storage in ice or at 4° C. for 2 hrs, the reaction mixture is filtered under vacuum through a glass fiber filter (2.5 cm disc, or 96-well filter plate). After washing with TCA and ethanol, the filter is dried and counted for tritium CPM after addition of scintillation fluid.
Incorporation of biotin-NAD into histone coated on plate is measured. A 96-well protein-binding EIA plate is coated with histone and blocked with bovine serum albumin. The reaction mixture (50 μL) contained DNA, buffer, enzyme, (test compound), and 250 μM of NAD and 5 μL of biotin-NAD (Trevigen). After reaction at room temperature the wells are washed and treated with Extravidin (Sigma). After incubation and washing color is developed with the peroxidase substrate TMB (Sigma). The TMB reaction is quenched with 2M sulfurric acid and the absorbance at 450 nm is read.

T1 sequence (P09874 whole entry): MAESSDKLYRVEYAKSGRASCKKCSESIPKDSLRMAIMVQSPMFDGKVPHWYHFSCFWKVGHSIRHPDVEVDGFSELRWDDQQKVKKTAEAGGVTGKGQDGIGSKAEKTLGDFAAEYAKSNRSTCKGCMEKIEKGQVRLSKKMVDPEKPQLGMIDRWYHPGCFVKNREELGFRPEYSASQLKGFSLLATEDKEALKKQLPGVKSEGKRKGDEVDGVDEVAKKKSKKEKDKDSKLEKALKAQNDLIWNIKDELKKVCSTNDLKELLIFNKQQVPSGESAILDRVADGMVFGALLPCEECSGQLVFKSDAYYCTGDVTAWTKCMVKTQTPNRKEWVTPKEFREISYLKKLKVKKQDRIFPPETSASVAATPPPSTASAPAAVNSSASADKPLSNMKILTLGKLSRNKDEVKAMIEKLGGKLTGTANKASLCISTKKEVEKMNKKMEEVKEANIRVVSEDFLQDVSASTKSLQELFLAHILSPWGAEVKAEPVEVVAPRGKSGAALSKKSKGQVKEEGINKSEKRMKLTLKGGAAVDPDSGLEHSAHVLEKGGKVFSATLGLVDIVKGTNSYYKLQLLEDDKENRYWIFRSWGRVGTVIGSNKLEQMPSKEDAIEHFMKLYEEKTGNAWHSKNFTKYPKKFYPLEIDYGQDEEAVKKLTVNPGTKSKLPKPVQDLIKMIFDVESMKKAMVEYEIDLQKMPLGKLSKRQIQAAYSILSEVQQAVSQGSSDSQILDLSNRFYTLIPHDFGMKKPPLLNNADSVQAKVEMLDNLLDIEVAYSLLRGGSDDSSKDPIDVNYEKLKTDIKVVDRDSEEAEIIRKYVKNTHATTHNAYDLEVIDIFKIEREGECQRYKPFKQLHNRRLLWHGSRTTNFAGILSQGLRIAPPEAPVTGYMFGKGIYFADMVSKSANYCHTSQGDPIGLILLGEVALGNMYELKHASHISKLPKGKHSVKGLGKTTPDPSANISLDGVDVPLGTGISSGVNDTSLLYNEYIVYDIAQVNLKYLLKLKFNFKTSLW

A word on the melting point: it is the temperature, or range, at which the solid turns liquid. Take `O=Cc1c(N2CCNCC2)n(Cc2ccccc2)c2ccccc12`: the melting point was 163 to 165 °C.

As a reminder, the pIC50 is −log10 of the IC50, conventionally taken in molar units. `Oc1cccc2c(O)nccc12` [1,5-isoquinolinediol]: in data set [1], the pIC50 is 6.00.

A word on the pEC50: it is the EC50 on a negative log10 scale, so that one unit is a factor of ten. Low values mean a large EC50, high ones a small EC50. What is called IC50 is the concentration that inhibits the measured activity by half. As to `O=Cc1c(N2CCNCC2)n(-c2ccccc2)c2ccccc12` [Example 3, 2-(Piperazin-1-yl)-1-phenyl-1H-indole-3-carboxaldehyde], in data set [2], the negative logarithm of the EC50 (pEC50) is 5.72. Moreover, the “reduction in infarct volume” value in data set [3] was 40-50%. In addition, in data set [4] (10 mg/kg i.v. 5 min prior to reperfusion (Example 3)), the “infarct size (% of area at risk), effect when given prior to reperfusion” value is on record as “small but significant effect”. Moreover, in data set [4] (10 mg/kg i.v. 10 min prior to occlusion (Example 3)), the “infarct size (% of area at risk), effect when given prior to ischemia” value is reported as “significant protection”. Moreover, the IC50 in data set [5] came to 2.5 µM.

`O=Cc1c(N2CCNCC2)n(-c2ccsc2)c2ccccc12` [Example 12, 2-(Piperazin-1-yl)-1-(thien-3-yl)-1H-indole-3-carboxaldehyde]: the pEC50 in data set [2] was 5.52. In addition, in data set [5], the half-maximal inhibitory concentration (IC50) amounted to 2 µM.
